The target in experiment [1] is T1, 5-lipoxygenase (5-LO) (Homo sapiens, UniProt P09917).
T1 construct: The leukocytes were homogenised and 5µM arachidonic acid added; from tissue; host or cells: homogenised leukocytes from blood of volunteers
T1 sequence (P09917 1-674): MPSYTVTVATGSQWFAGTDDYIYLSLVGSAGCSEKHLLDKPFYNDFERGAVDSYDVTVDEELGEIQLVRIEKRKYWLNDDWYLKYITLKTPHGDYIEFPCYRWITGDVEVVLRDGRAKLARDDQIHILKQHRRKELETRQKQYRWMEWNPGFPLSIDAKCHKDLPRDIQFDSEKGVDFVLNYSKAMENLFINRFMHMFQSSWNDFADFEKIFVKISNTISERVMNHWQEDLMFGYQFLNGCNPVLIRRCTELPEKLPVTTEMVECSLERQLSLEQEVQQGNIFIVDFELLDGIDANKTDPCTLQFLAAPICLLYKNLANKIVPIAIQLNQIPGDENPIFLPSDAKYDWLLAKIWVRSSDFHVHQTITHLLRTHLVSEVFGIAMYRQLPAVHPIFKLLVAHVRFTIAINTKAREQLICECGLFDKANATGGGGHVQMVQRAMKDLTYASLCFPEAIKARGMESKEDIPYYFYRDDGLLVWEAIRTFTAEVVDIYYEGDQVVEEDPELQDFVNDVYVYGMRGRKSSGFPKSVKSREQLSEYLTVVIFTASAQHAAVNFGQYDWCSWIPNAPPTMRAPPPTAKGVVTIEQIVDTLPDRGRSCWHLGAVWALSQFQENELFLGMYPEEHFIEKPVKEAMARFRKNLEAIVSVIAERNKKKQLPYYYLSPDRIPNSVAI
The experiment can be described thus: In vitro inhibition of 5-lipoxygenase (5-LO) in homogenised leukocytes, radioimmunoassay for leucotriene B4. It is filed as biochemical. Particulars: homogenised leukocytes from blood of normal aspirin-free volunteers; 5µM arachidonic acid, 37°C, 5 minutes; leucotriene B₄ by radioimmunoassay; read-out: IC₅₀(µM) activity LO. The procedure:
(§1) In vitro inhibition of 5-lipoxygenase (5-LO) and cyclo-oxygenase (CO)
(§2) Blood from normal aspirin-free volunteers was centrifuged to separate leukocytes from red cells and platelets. The leukocytes were homogenised and 5µM arachidonic acid added, followed by incubation at 37 °C for 5 minutes. The reaction was stopped by boiling and radioimmunoassays conducted for leucotriene B₄ and thromboxane B₂, products derived from 5-lipoxygenase and cyclo-oxygenase respectively. Results were calculated as IC₅₀(µM) activity against each enzyme.

Experiment [2] deals with T2, cyclo-oxygenase (CO) (Homo sapiens, UniProt P23219).
T2 construct: The leukocytes were homogenised and 5µM arachidonic acid added; from tissue; host or cells: homogenised leukocytes from blood of volunteers
The experiment can be described thus: In vitro inhibition of cyclo-oxygenase (CO) in homogenised leukocytes, radioimmunoassay for thromboxane B2. It is filed as biochemical. The following applies: homogenised leukocytes from blood of normal aspirin-free volunteers; 5µM arachidonic acid, 37°C, 5 minutes; thromboxane B₂ by radioimmunoassay; read-out: IC₅₀(µM) activity CO. On the procedure: as §1, §2

The text below walks through data of EP0351214A1, “Anti-inflammatory aryl derivatives” (THE WELLCOME FOUNDATION LIMITED, priority 1988, dated 1990).

T2 sequence (P23219 24-599): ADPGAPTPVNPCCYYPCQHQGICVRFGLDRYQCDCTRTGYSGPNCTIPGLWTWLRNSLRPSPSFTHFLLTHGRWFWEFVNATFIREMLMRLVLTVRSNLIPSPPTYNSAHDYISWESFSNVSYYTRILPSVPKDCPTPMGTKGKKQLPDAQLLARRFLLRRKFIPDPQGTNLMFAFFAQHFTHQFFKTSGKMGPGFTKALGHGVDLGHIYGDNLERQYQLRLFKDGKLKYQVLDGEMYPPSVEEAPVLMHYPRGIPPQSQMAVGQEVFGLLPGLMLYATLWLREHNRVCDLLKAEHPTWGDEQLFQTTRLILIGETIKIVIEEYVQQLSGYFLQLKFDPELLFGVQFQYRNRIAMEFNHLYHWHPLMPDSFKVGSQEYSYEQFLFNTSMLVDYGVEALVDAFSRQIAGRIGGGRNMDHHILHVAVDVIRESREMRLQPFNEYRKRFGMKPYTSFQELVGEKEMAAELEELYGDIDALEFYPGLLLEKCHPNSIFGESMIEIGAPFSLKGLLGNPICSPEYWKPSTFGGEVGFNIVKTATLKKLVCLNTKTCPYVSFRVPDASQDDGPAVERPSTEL

With `CC(=O)N(O)[C@@H](C)/C=C/c1cccc(Oc2ccc(F)cc2)c1` [Synthetic Example, (E)-N-{1(S)-methyl-3-[3-(4-fluorophenoxy)phenyl]prop-2-en-1-yl}acetohydroxamic acid], the values for the IC50 in experiment [1] and in experiment [2] were 0.15 µM and 3 µM, respectively.
